PubChem BioAssay (NCI)
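Where inhibition never reached the appropriate level, the endpoint shown equals the highest concentration tested. Otherwise, values were interpolated linearly from a five-concentration, 48-hour dose response in 96-well plates. The concentration for 50% growth inhibition is given as GI50. At the TGI there is no net growth.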

What was measured:
Experiment in all cases: DTP human tumour cell line panel, 48 h
ACHN renal = system: ACHN renal
MALME-3M melanoma = system: MALME-3M melanoma
K-562 leukemia = system: K-562 leukemia
NCI-H23 lung = system: NCI-H23 lung
SF-295 CNS = system: SF-295 CNS
786-0 renal = system: 786-0 renal
RXF 393 renal = system: RXF 393 renal
LOX IMVI melanoma = system: LOX IMVI melanoma
HOP-92 NSCLC = system: HOP-92 NSCLC
OVCAR-5 ovarian = system: OVCAR-5 ovarian

SMILES: COc1ccc(S(=O)(=O)N2CCCCC2)cc1NC(=O)c1[nH]c(C)c2c1CCCCC2=O
- GI50 (ACHN renal): 2.34 µM
- TGI (ACHN renal): > 100 µM
- GI50 (MALME-3M melanoma): 1.76 µM
- TGI (MALME-3M melanoma): 93.8 µM
- GI50 (K-562 leukemia): 1.75 µM
- TGI (K-562 leukemia): > 100 µM
- GI50 (NCI-H23 lung): 3.11 µM
- TGI (NCI-H23 lung): > 100 µM
- GI50 (SF-295 CNS): 2.52 µM
- TGI (SF-295 CNS): > 100 µM
- GI50 (786-0 renal): 1.06 µM
- TGI (786-0 renal): > 100 µM
- GI50 (RXF 393 renal): 0.818 µM
- TGI (RXF 393 renal): 4.09 µM
- GI50 (LOX IMVI melanoma): 0.887 µM
- TGI (LOX IMVI melanoma): 2.79 µM
- GI50 (HOP-92 NSCLC): 0.59 µM
- TGI (HOP-92 NSCLC): 48.6 µM
- GI50 (OVCAR-5 ovarian): 2.53 µM
- TGI (OVCAR-5 ovarian): > 100 µM

SMILES: COc1cc(C)c(N(C)C(=O)CN(C)C)cc1Nc1nc(Nc2cccc(F)c2C(N)=O)c2cc[nH]c2n1
- GI50 (ACHN renal): > 25 µM
- TGI (ACHN renal): > 25 µM
- GI50 (MALME-3M melanoma): > 25 µM
- TGI (MALME-3M melanoma): > 25 µM
- GI50 (K-562 leukemia): 18.1 µM
- TGI (K-562 leukemia): > 25 µM
- GI50 (NCI-H23 lung): > 25 µM
- TGI (NCI-H23 lung): > 25 µM
- GI50 (SF-295 CNS): > 25 µM
- TGI (SF-295 CNS): > 25 µM
- GI50 (786-0 renal): > 25 µM
- TGI (786-0 renal): > 25 µM
- GI50 (RXF 393 renal): 20.5 µM
- TGI (RXF 393 renal): > 25 µM
- GI50 (LOX IMVI melanoma): 24.6 µM
- TGI (LOX IMVI melanoma): > 25 µM
- GI50 (HOP-92 NSCLC): 0.645 µM
- TGI (HOP-92 NSCLC): 16.2 µM
- GI50 (OVCAR-5 ovarian): 1.41 µM
- TGI (OVCAR-5 ovarian): > 25 µM

SMILES: Cc1cc(C)c(S(=O)(=O)Oc2ccccc2[N+](=O)[O-])c(C)c1
- GI50 (ACHN renal): 5.56 µM
- TGI (ACHN renal): > 100 µM
- GI50 (MALME-3M melanoma): 1.26 µM
- TGI (MALME-3M melanoma): > 100 µM
- GI50 (K-562 leukemia): 0.398 µM
- TGI (K-562 leukemia): > 100 µM
- GI50 (NCI-H23 lung): 4.69 µM
- TGI (NCI-H23 lung): > 100 µM
- GI50 (SF-295 CNS): 1.67 µM
- TGI (SF-295 CNS): > 24.3 µM
- GI50 (786-0 renal): 5.58 µM
- TGI (786-0 renal): > 100 µM
- GI50 (RXF 393 renal): 2.48 µM
- TGI (RXF 393 renal): 7.83 µM
- GI50 (LOX IMVI melanoma): 3.33 µM
- TGI (LOX IMVI melanoma): > 100 µM
- GI50 (HOP-92 NSCLC): 1.98 µM
- TGI (HOP-92 NSCLC): 25.4 µM
- GI50 (OVCAR-5 ovarian): 5.67 µM
- TGI (OVCAR-5 ovarian): > 100 µM

SMILES: COc1cccc2c1C(=O)c1c(O)c3c(c(O)c1C2=O)C[C@@](O)(C(=O)COC(=O)c1cccnc1)C[C@@H]3OC1CC(N)C(O)C(C)O1 (stereo not given in full)
- GI50 (ACHN renal): 0.117 µM
- GI50 (MALME-3M melanoma): 0.115 µM
- TGI (MALME-3M melanoma): 0.353 µM
- GI50 (K-562 leukemia): 0.15 µM
- TGI (K-562 leukemia): 2.75 µM
- GI50 (NCI-H23 lung): 0.178 µM
- TGI (NCI-H23 lung): 1.02 µM
- GI50 (SF-295 CNS): 0.148 µM
- TGI (SF-295 CNS): 2.29 µM
- GI50 (786-0 renal): 0.14 µM
- TGI (786-0 renal): 1.25 µM
- GI50 (RXF 393 renal): 0.169 µM
- TGI (RXF 393 renal): 0.589 µM
- GI50 (LOX IMVI melanoma): 0.0443 µM
- TGI (LOX IMVI melanoma): 0.372 µM
- GI50 (HOP-92 NSCLC): 0.0859 µM
- TGI (HOP-92 NSCLC): 0.737 µM
- GI50 (OVCAR-5 ovarian): 0.335 µM
- TGI (OVCAR-5 ovarian): 4.53 µM

SMILES: c1ccc2c(c1)[Se]c1ccccc1[Se]2
- TGI (ACHN renal): > 100 µM
- TGI (MALME-3M melanoma): > 100 µM
- TGI (K-562 leukemia): > 100 µM
- TGI (NCI-H23 lung): > 100 µM
- TGI (SF-295 CNS): 73.8 µM
- TGI (786-0 renal): > 100 µM
- TGI (RXF 393 renal): > 100 µM
- TGI (LOX IMVI melanoma): > 100 µM
- TGI (HOP-92 NSCLC): 76.3 µM
- TGI (OVCAR-5 ovarian): > 100 µM

SMILES: S=C1SC2(CCCCCC2)NC2=C1CCCCC2
- TGI (ACHN renal): > 100 µM
- TGI (MALME-3M melanoma): > 100 µM
- TGI (K-562 leukemia): > 100 µM
- TGI (NCI-H23 lung): > 100 µM
- TGI (SF-295 CNS): 99 µM
- TGI (786-0 renal): > 100 µM
- TGI (RXF 393 renal): > 100 µM
- TGI (LOX IMVI melanoma): > 100 µM
- TGI (HOP-92 NSCLC): 67.3 µM
- TGI (OVCAR-5 ovarian): > 100 µM

SMILES: Cc1ccc(S(=O)(=O)NC(C)C(=O)O)cc1 (stereo not given)
- TGI (ACHN renal): > 100 µM
- TGI (MALME-3M melanoma): > 100 µM
- GI50 (K-562 leukemia): > 100 µM
- TGI (K-562 leukemia): > 100 µM
- TGI (NCI-H23 lung): > 100 µM
- TGI (SF-295 CNS): > 100 µM
- TGI (786-0 renal): > 100 µM
- TGI (RXF 393 renal): > 100 µM
- TGI (LOX IMVI melanoma): > 100 µM
- TGI (HOP-92 NSCLC): > 100 µM
- TGI (OVCAR-5 ovarian): > 100 µM

SMILES: c1ccc(CN2CCC3(CC2)ONC2=NCCN23)cc1
- GI50 (ACHN renal): 49.7 µM
- TGI (ACHN renal): > 100 µM
- GI50 (MALME-3M melanoma): > 100 µM
- TGI (MALME-3M melanoma): > 100 µM
- GI50 (K-562 leukemia): 42.8 µM
- TGI (K-562 leukemia): > 100 µM
- GI50 (NCI-H23 lung): 54.9 µM
- TGI (NCI-H23 lung): > 100 µM
- GI50 (SF-295 CNS): > 100 µM
- TGI (SF-295 CNS): > 100 µM
- GI50 (786-0 renal): 42.6 µM
- TGI (786-0 renal): > 100 µM
- GI50 (RXF 393 renal): 88.1 µM
- TGI (RXF 393 renal): > 100 µM
- GI50 (LOX IMVI melanoma): 21.7 µM
- TGI (LOX IMVI melanoma): 55.5 µM
- GI50 (HOP-92 NSCLC): 29.3 µM
- TGI (HOP-92 NSCLC): 59.1 µM
- GI50 (OVCAR-5 ovarian): 40.8 µM
- TGI (OVCAR-5 ovarian): > 100 µM

SMILES: COC(=O)/C=C\C1C(C(=O)OC)C2(C(=O)OC)CCC1(C(=O)OC)N2 (stereo not given)
- TGI (ACHN renal): 22.7 µM
- TGI (MALME-3M melanoma): 15.8 µM
- TGI (K-562 leukemia): 53.2 µM
- TGI (NCI-H23 lung): 36.4 µM
- TGI (SF-295 CNS): 44.8 µM
- TGI (786-0 renal): 28.6 µM
- TGI (RXF 393 renal): 19.7 µM
- TGI (LOX IMVI melanoma): 29 µM
- TGI (HOP-92 NSCLC): 19.6 µM
- TGI (OVCAR-5 ovarian): 34.5 µM
